Like-named read-outs stand apart in the source and are kept apart here.
How the values were obtained:
[1] = tested on: spontaneous climbing behaviour (SCB) of mice; experiment: Spontaneous climbing behaviour (SCB) of mice (Table X); type: in vivo, mouse (NMRI); settings: for influence of antagonists on the SCB activity of extract and Physostigmine: Scopolamine, Sulpiride, Naloxone, other receptor antagonists; for Mean climbing score, animal: M ± SD
Procedure: In one of these experiments the influence of the extract on the spontaneous climbing behaviour (SCB) was examined according to the method described by Marcais et al. (Psychopharmacology; 56, 233-234, 1978).
*The substances were applied 20 min before the observation period (30
min). In the combination experiments, the second substance was
administered 5 min before the first substance.

[2] = tested on: Oxotremorine induced hypothermia, tremor and salivation in mice; experiment: Oxotremorine induced hypothermia, tremor and salivation (Table XIII); type: in vivo, mouse (NMRI); settings: for Hypothermia: M ± SD
Procedure: (§1) The analgesia tests were carried out according to the hotplate test (J. Pharm. Pharmacol., 9, 381, 1957) and the tests for hypothermia, tremor and salivation according to the method described by Gouret (J. Pharmacol., 4, 105-128, 1973). Subsequently, the mice were treated with extract and Physostigmine etc., in a manner similar to the method described above in connection with the hypoxia tests.

[3] = tested on: mice; experiment: Analgetic effect, hotplate test (Table XII); type: in vivo, mouse (NMRI); settings: for Latent period: M ± SD
Procedure: as §1
A The percentage of animals having a latent period of more than 60 sec.

[4] = tested on: mice; experiment: Influence on anti-hypoxic effects of Pilocarpine and Physostigmine (Table XI); type: in vivo, mouse (NMRI); settings: for Survival time, treated animals: M ± SEM
Procedure: The protective actions of the extract against hypoxia were compared in a Hypobare-Hypoxia model, according to a method described by Nakanishi et al (Life Sci 13, 467-478, 1973). 4 mice (2 control animals and 2 treated animals) were put into a vacuum desiccator (3.51). A negative pressure of 170 mmHg was generated therein within 20 sec. The survival times of the animals under these hypoxia conditions were determined. The test substance was administered intraperitoneally in an aqueous solution 30 min before the experiment began. The control animals were only treated with solvents. The maximum observation period of the survival times was 8 min. The survival time of the treated animals tolerating the hypoxia condition longer than this period was assumed to be 480 sec. None of the control animals survived longer than 180 sec. The percentage of the treated animals surviving longer than 3 min was defined as %-effect of the extract.
The anti-hypoxic effects of the cholinomimetics Pilocarpine and the acetylcholine-esterase inhibitor Physostigmine entering the brain are known. […] The method applied for these experiments was similar to the above-described Hypobare-Hypoxia model. Groups of mice were treated orally with an aqueous suspension of the extract (or with water). Pilocarpine and Physostigmine, respectively (or water) were administered 30 min later. The hypoxia tests were carried out 30 min after the second application.

[5] = tested on: brain and nerves; settings: brain of many species, including humans; cited from earlier work
[6] = tested on: brain and nerves; settings: brain of various species; cited from earlier work
[7] = Test 1, Physostigmine 0.1 mg/kg s.c.
[8] = Test 1, Physostigmine 0.2 mg/kg s.c.

## C=CCN1CC[C@]23c4c5ccc(O)c4O[C@H]2C(=O)CC[C@@]3(O)[C@H]1C5 [Naloxone]
[1]
  influence of antagonists on the SCB activity of extract and Physostigmine: do not influence the effects of Physostigmine and the extract

## O=C1CCCN1CC#CCN1CCCC1 [Oxotremorine]
[2]; Oxotremorine 0.1 mg/kg i.p.
  Salivation: 60%
  Tremor: 0%
  Hypothermia: 2.5 ± 0.82 °C
[2]; Oxotremorine 0.2 mg/kg i.p.
  Salivation: 100%
  Tremor: 50%
  Hypothermia: 5.23 ± 1.19 °C

## CNC(=O)Oc1ccc2c(c1)[C@]1(C)CCN(C)[C@@H]1N2C [Physostigmine]
[3]; [7]
  % effect (animals with latent period of more than 60 sec): 10%
  Latent period: 31.1 ± 13.9 s
[3]; [8]
  % effect (animals with latent period of more than 60 sec): 50%
  Latent period: 44.1 ± 17.69 s
[4]; Physostigmine 0.2 mg/kg i.p.
  % effect: 20%
[4]; Physostigmine 0.2 mg/kg i.p., control 80.6 ± 9.64
  Survival time, treated animals: 190.63 ± 26.2 s
[1]
  influence of antagonists on the SCB activity of extract and Physostigmine: inhibited only by specific anti-cholinergic agents entering the brain, such as Scopolamine and not influenced by antagonists to other receptors
[1]; Test II, 0.10 mg/kg s.c.
  Mean climbing score, animal: 1.39 ± 0.92
[1]; Test III, 0.025 mg/kg s.c.
  Mean climbing score, animal: 5.75 ± 1.28
[1]; Test III, 0.05 mg/kg s.c.
  Mean climbing score, animal: 3.88 ± 2.23
[1]; words
  influence on SCB of mice: reduces the SCB of mice

## CC[C@@H]1C(=O)OC[C@@H]1Cc1cncn1C [Pilocarpine]
[3]; Test 2, Pilocarpine 5 mg/kg s.c.
  % effect (animals with latent period of more than 60 sec): 10%
[3]; Test 2, Pilocarpine 5 mg/kg s.c., control 15.74 ± 3.47
  Latent period: 24.9 ± 13.32 s
[4]; Pilocarpine 2 mg/kg i.p.
  % effect: 30%
[4]; Pilocarpine 2 mg/kg i.p., control 86.7 ± 6.82
  Survival time, treated animals: 178.6 ± 24.8 s

## CN1[C@@H]2C[C@@H](OC(=O)[C@H](CO)c3ccccc3)C[C@H]1[C@@H]1O[C@@H]12 [Scopolamine]
[1]; Test II, 0.25 mg/kg i.p.
  Mean climbing score, animal: 6.63 ± 1.42

## CCN1CCCC1CNC(=O)c1cc(S(N)(=O)=O)ccc1OC (centres unmarked) [Sulpiride]
[1]
  influence of antagonists on the SCB activity of extract and Physostigmine: do not influence the effects of Physostigmine and the extract

## Oc1c(Cl)cc(Cl)c(Cl)c1Cc1c(O)c(Cl)cc(Cl)c1Cl [hexachlorophene, 2,2'-methylene-bis(3,4,6-trichlorophenol)]
[5]
  neurotoxic effect: produces oedematous damage in the brain of many species, including humans

## C[CH2][Sn]([Cl])([CH2]C)[CH2]C [triethyltin chloride]
[6]
  neurotoxic effect: brings about an increase in the water content in the brain of various species and induces specific myelopathy in the nerves
